What is called Ki is a measure of affinity in units of concentration, obtained from inhibition or displacement. A word on the IC50: it is the midpoint of a concentration-inhibition curve. What is called AUC(0-t) is exposure summed from dosing to a finite time, without extrapolation to infinity.

The text below walks through data of ChEMBL document CHEMBL1138111, “Reduction of CYP450 inhibition in the 4-[(1H-imidazol-4-yl)methyl]piperidine series of histamine H3 receptor antagonists” (Bioorg Med Chem Lett, 2006).

Data set [1] addresses T1, Histamine H3 receptor (Cavia porcellus, UniProt Q9JI35). Nature of the data set: Displacement of [3H]N-alpha-methylhistamine from guinea pig histamine H3 receptor. In general terms: Loss of bound radioactivity is the signal in a displacement assay; it reports binding, not function.
The target of data set [2] is T1, Histamine H3 receptor. The experiment in a line: Antagonistic activity against histamine H3 receptor in guinea pig ileum. Format: functional, tissue-based. The note with it: read-out: pA2 (converted).
Data set [3] addresses T2, Cytochrome P450 2D6 (Homo sapiens, UniProt P10635). The experiment in a line: Inhibition of CYP2D6 by human liver microsome assay. Format: ADME, microsomes.
Data set [4] can be described thus: Plasma AUC (0-24 h) in monkey at 3 mg/kg, po. Particulars: rhesus monkey. Further details: time < 24 hr, dose 3 mg/kg, route oral. The data set is classed as ADME, organism-based, Macaca mulatta.
Another data set deals with Cytochrome P450 3A4 (Homo sapiens, UniProt P08684). Nature of the data set: Inhibitory activity against CYP3A4. Format: ADME.
Cytochrome P450 3A4, sequence (P08684 whole entry): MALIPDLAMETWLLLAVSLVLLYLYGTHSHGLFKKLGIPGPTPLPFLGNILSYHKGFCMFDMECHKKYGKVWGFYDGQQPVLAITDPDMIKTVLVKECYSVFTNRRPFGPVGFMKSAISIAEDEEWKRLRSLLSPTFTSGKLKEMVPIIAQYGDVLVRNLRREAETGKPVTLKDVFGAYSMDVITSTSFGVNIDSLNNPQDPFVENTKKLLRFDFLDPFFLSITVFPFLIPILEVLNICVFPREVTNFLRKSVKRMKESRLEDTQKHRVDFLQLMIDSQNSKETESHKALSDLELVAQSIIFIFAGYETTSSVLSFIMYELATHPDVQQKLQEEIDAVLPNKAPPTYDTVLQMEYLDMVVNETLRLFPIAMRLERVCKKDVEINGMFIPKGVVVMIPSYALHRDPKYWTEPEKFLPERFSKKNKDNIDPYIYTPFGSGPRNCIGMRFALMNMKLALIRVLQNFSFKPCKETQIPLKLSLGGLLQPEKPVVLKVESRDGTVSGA
Data set [5] deals with T2, Cytochrome P450 2D6. Nature of the data set: Inhibition of CYP2D6 by supersome assay. The data set is classed as ADME.
Data set [6] is described as follows: Plasma AUC (0-6 h) in rat at 10 mg/kg, po. Format: ADME, organism-based. Also noted: time < 6 hr, dose 10 mg/kg, route oral.

T2 sequence (P10635 whole entry): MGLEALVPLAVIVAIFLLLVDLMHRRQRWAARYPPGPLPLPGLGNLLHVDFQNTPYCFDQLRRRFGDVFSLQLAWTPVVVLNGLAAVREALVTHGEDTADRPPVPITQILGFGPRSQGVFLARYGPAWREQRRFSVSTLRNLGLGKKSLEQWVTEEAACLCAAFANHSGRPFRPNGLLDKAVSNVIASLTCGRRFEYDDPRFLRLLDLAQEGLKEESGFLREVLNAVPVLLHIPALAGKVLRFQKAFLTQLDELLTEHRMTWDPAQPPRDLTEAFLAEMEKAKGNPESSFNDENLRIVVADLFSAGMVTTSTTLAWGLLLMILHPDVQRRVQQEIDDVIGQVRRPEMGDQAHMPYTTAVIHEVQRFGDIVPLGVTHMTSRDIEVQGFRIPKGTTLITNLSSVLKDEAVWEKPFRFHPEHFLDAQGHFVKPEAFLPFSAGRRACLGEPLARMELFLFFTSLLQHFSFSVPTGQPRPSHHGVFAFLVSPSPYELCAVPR
T1 sequence (Q9JI35 whole entry): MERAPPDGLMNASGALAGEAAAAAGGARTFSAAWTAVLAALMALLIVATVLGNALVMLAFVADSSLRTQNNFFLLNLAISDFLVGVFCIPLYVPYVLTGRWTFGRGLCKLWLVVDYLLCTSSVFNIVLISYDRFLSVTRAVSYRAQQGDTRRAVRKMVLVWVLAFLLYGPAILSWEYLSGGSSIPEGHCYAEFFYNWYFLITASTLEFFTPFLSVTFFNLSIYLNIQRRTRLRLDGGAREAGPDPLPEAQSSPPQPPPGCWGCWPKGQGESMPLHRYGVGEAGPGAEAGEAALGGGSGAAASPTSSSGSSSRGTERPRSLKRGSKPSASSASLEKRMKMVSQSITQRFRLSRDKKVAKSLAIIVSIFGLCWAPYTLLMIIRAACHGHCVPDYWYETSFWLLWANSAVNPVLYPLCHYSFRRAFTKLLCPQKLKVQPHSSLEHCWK

Regarding `c1nc(CC2CCN(CCCOc3ccc(CN4CCCCC4)cc3)CC2)c[nH]1`, the Ki on Histamine H3 receptor [1] amounted to 3 nM. Also, the Kb on Histamine H3 receptor [2] was 2.51 nM. On Cytochrome P450 2D6 [3], the IC50 turned out to be 14000 nM. The AUC(0-t) at 24 h in data set [4] turned out to be 3.2 µM·h.
For the compound `O=C(c1ccc(OCCCN2CCC(Cc3cnc[nH]3)CC2)nc1)N1CCCCC1`, the Ki at Histamine H3 receptor [1] stood at 24 nM. In addition, the Kb on Histamine H3 receptor [2] is 20 nM. The compound also gave a 50% inhibitory concentration (IC50) on Cytochrome P450 2D6 [3] of 2000 nM.
As for `c1ccc(OCCCN2CCC(Cc3c[nH]cn3)CC2)cc1`, the figures for the IC50 on Cytochrome P450 2D6 [3] and against Cytochrome P450 3A4 were 30 nM and over 20000 nM, respectively.
On to `c1cc(CN2CCCCC2)cc(OCCCN2CCC(Cc3cnc[nH]3)CC2)c1`, for which the Ki at Histamine H3 receptor [1] stood at 1 nM. Also, the Kb at Histamine H3 receptor [2] is 3.98 nM. Moreover, the IC50 on Cytochrome P450 2D6 [3] was found to be 3000 nM.
For the compound `c1nc(CC2CCN(CCCCOc3ccc(CN4CCCCC4)cc3)CC2)c[nH]1`, at Histamine H3 receptor [1], the Ki was 16 nM. Also, on Histamine H3 receptor [2], the Kb was 15.8 nM. Also, at Cytochrome P450 2D6 [3], the IC50 was over 20000 nM.
`c1cnc(-c2ccc(OCCCN3CCC(Cc4cnc[nH]4)CC3)cc2)nc1` gave a Ki on Histamine H3 receptor [1] of 45 nM. The same compound gave an IC50 on Cytochrome P450 2D6 [3] of 6000 nM.
`FC1(F)CCN(Cc2ccc(OCCCN3CCC(Cc4cnc[nH]4)CC3)cc2)CC1` had a Ki on Histamine H3 receptor [1] of 4 nM. This compound returned an IC50 on Cytochrome P450 2D6 [3] of 6000 nM.
Compound `Nc1ncc(-c2ccc(OCCCN3CCC(Cc4c[nH]cn4)CC3)cc2)cn1` had a Ki on Histamine H3 receptor [1] of 12 nM. At Histamine H3 receptor [2], the Kb is 20 nM. At Cytochrome P450 2D6 [3], this compound returned an IC50 of 12000 nM.
With `CN(C)CCCOc1ccc(CCCN2CCC(Cc3cnc[nH]3)CC2)cc1`, the Ki on Histamine H3 receptor [1] was 13 nM. Moreover, the Kb on Histamine H3 receptor [2] is 50.1 nM. At Cytochrome P450 2D6 [3], this compound had an IC50 of over 30000 nM.
Turning to `CN(C)CCCOc1ccc(CN2CCC(Cc3cnc[nH]3)CC2)cc1`, at Histamine H3 receptor [1], the affinity, expressed as Ki, was 17 nM. Further, at Histamine H3 receptor [2], the Kb was 79.4 nM. This compound also came in with an IC50 against Cytochrome P450 2D6 [3] of over 30000 nM.
`NC(=O)C1CCN(Cc2ccc(OCCCN3CCC(Cc4c[nH]cn4)CC3)cc2)CC1` registered a Ki on Histamine H3 receptor [1] of 16 nM. For the same compound, the Kb at Histamine H3 receptor [2] is 25.1 nM. For the same compound, the IC50 on Cytochrome P450 2D6 [5] is over 30000 nM.
In turn, `O=C(CCc1ccc(CN2CCCCC2)cc1)N1CCC(Cc2c[nH]cn2)CC1` had a Ki on Histamine H3 receptor [1] of 45 nM. The IC50 against Cytochrome P450 2D6 [3] worked out at 3000 nM.
On Histamine H3 receptor [1], `c1cnc2ccc(OCCCN3CCC(Cc4cnc[nH]4)CC3)cc2c1` gave a Ki of 52 nM. In addition, the midpoint of inhibition at Cytochrome P450 2D6 [3], the IC50, lay at 2000 nM.
Consider `O=C1CCCCN1Cc1ccc(OCCCN2CCC(Cc3cnc[nH]3)CC2)cc1`, for which the Ki at Histamine H3 receptor [1] came to 34 nM. Moreover, the half-inhibitory concentration (IC50) against Cytochrome P450 2D6 [5] is 5000 nM.
`c1ncc(-c2ccc(OCCCN3CCC(Cc4cnc[nH]4)CC3)cc2)cn1`: the affinity on Histamine H3 receptor [1], expressed as Ki, was 9 nM. Moreover, at Cytochrome P450 2D6 [3], the IC50 came out at 4000 nM.
On Histamine H3 receptor [1], `c1ncc(CC2CCN(CCOc3ccc(CN4CCCCC4)cc3)CC2)[nH]1` displayed a Ki of 5 nM. This compound also had an IC50 at Cytochrome P450 2D6 [3] of 3000 nM.
The corresponding values for `c1ncc(CC2CCN(CCCOc3ccc(CN4CCC(N5CCCCC5)CC4)cc3)CC2)[nH]1` are 3 nM and over 30000 nM.
On Histamine H3 receptor [1], `c1cncc(-c2ccc(OCCCN3CCC(Cc4cnc[nH]4)CC3)cc2)c1` yielded a Ki of 12 nM. In addition, the IC50 at Cytochrome P450 2D6 [3] came out at 300 nM.
For `c1ncc(CC2CCN(CCCOc3ccc(OC4CCCCC4)cc3)CC2)[nH]1`, affinity at Histamine H3 receptor [1] was put at a Ki of 6 nM. Further, 300 nM corresponded to half-maximal inhibition at Cytochrome P450 2D6 [3] (IC50).
`c1nc(CC2CCN(CCCOc3ccc(N4CCCCC4)cc3)CC2)c[nH]1`: the Ki on Histamine H3 receptor [1] came to 15 nM. Also, 1000 nM corresponded to half-maximal inhibition against Cytochrome P450 2D6 [3] (IC50).
Consider `O=C(Nc1nccs1)N1CCC(Cc2cnc[nH]2)CC1`, for which, on Histamine H3 receptor [1], the Ki worked out at 4 nM. In addition, the Kb at Histamine H3 receptor [2] was 25.1 nM. The compound also came in with an IC50 against Cytochrome P450 2D6 [3] of 2000 nM. In data set [6], this compound had an AUC(0-t) at 6 h of 1.03 µM·h.
On to `O=C(c1ccc(OCCCN2CCC(Cc3cnc[nH]3)CC2)cc1)N1CCNCC1`, for which, on Histamine H3 receptor [1], the Ki turned out to be 23 nM. For the same compound, the Kb on Histamine H3 receptor [2] was 15.8 nM. Further, the IC50 against Cytochrome P450 2D6 [3] is over 20000 nM.
Turning to `O=C(c1ccc(OCCCN2CCC(Cc3c[nH]cn3)CC2)cc1)N1CCCCC1`, the Ki at Histamine H3 receptor [1] came to 26 nM. Besides, the Kb at Histamine H3 receptor [2] was 20 nM. The IC50 at Cytochrome P450 2D6 [5] was 2000 nM.
For `O=C(Nc1ncccn1)N1CCC(Cc2c[nH]cn2)CC1`, the Ki on Histamine H3 receptor [1] was found to be 8 nM. Moreover, the Kb at Histamine H3 receptor [2] was 25.1 nM. At Cytochrome P450 2D6 [3], this compound had an IC50 of 6000 nM.
The compound `O=C(CCOc1ccc(C(=O)N2CCNCC2)cc1)N1CCC(Cc2c[nH]cn2)CC1` displayed an IC50 against Cytochrome P450 2D6 [3] of 30000 nM.
As for `c1nc(CC2CCN(CCCOc3ccc(CN4CCCCC4)nc3)CC2)c[nH]1`, on Histamine H3 receptor [1], the Ki worked out at 10 nM. Besides, the Kb on Histamine H3 receptor [2] was 7.94 nM. At Cytochrome P450 2D6 [3], the midpoint of inhibition, the IC50, lay at 3000 nM.
Take `O=C(CCOc1ccc(CN2CCCCC2)cc1)N1CCC(Cc2cnc[nH]2)CC1`: the affinity at Histamine H3 receptor [1], expressed as Ki, was 315 nM. Also, the IC50 at Cytochrome P450 2D6 [3] was 1000 nM. Besides, the area under the curve AUC(0-t) at 6 h in data set [6] came to 1.83 µM·h.
In the case of `O=C(CCN1CCC(Cc2c[nH]cn2)CC1)Nc1ccc(CN2CCCCC2)cc1`, the Ki at Histamine H3 receptor [1] was found to be 40 nM. The IC50 against Cytochrome P450 2D6 [3] is 9000 nM.
Consider `c1ncc(CC2CCN(CCCOc3ccc(NC4CCCCC4)cc3)CC2)[nH]1`, for which affinity on Histamine H3 receptor [1] was put at a Ki of 15 nM. The same compound came in with an IC50 against Cytochrome P450 2D6 [3] of 900 nM.
For `CCN(CC)Cc1ccc(OCCCN2CCC(Cc3c[nH]cn3)CC2)cc1`, at Histamine H3 receptor [1], the Ki worked out at 4 nM. Also, the Kb at Histamine H3 receptor [2] was 1.58 nM. At Cytochrome P450 2D6 [3], this compound came in with an IC50 of 6000 nM.
`CN(C)CCCOc1ccc(CN2CCCCC2)cc1` showed a Ki on Histamine H3 receptor [1] of 33 nM. Further, the Kb at Histamine H3 receptor [2] is 31.6 nM. Moreover, the IC50 at Cytochrome P450 2D6 [3] and on Cytochrome P450 3A4 was over 30000 nM each time.
Turning to `c1cc(OCCCN2CCC(Cc3cnc[nH]3)CC2)cc(OC2CCCCC2)c1`, on Histamine H3 receptor [1], the Ki amounted to 3 nM. For the same compound, the IC50 at Cytochrome P450 2D6 [3] is 2000 nM.
Take `c1ncc(CC2CCN(CCCOc3ccc(N4CCNCC4)cc3)CC2)[nH]1`: the affinity on Histamine H3 receptor [1] corresponds to a Ki of 12 nM. The same compound showed an IC50 on Cytochrome P450 2D6 [3] of over 20000 nM.
On to `c1ncc(CC2CCN(CCCOc3ccc(CCN4CCCCC4)cc3)CC2)[nH]1`, for which, on Histamine H3 receptor [1], affinity was put at a Ki of 3 nM. Also, the Kb at Histamine H3 receptor [2] was 3.16 nM. On Cytochrome P450 2D6 [5], this compound showed an IC50 of 1000 nM.
